The target of assay [1] is CDK7/Cyclin H/MAT1 trimeric complex (Homo sapiens, UniProt P50613). The assay can be described thus: CDK7 kinase assay, Caliper/LabChip EZ Reader (Biortus Biosciences). Type of assay: biochemical. The conditions noted are these: CDK7/Cyclin H/MAT1 10 nM, ATP 2 mM, FAM-CDK7tide 2 μM, 30 min incubation, read-out: CDK7 Inhibition (IC50). The protocol: Compounds of the invention were further assayed for CDK7 activity at Biortus Biosciences (Jiangyin, Jiangsu Province, P.R. of China) using a CDK7 kinase assay developed with a Caliper/LabChip EZ Reader (Perkin Elmer, Waltham, Mass.). […] The incubation period was chosen such that the total fraction of phosphorylated peptide product produced was <20% for the uninhibited kinase.

The test system of a further assay is A673 cells. The assay can be described thus: Inhibition of proliferation of A673 cells (CyQUANT, 72 hour). In kind it is cell-based, human. To be noted: 72 hour proliferation. The method, boiled down:
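Human Ewing's sarcoma A673 cells in DMEM + 10% FBS + 1 mM sodium pyruvate, 37 °C, 5% CO2, exposed to compounds from 4 μM to 126.4 pM (0.5 log dilutions) for 72 h. Proliferation read by CyQUANT; IC50 reported as binned categories.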

The subject of a further assay is Jurkat cells. The assay can be described thus: Inhibition of proliferation of Jurkat cells (CellTiter-Glo, 72 hour). In kind it is cell-based, human. To be noted: 10 μM to 316 pM. The method, boiled down: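 Human T-cell leukemia Jurkat cells in RPMI 1640 with 10% FBS were exposed 72 h at 37 °C, 5% CO2 to compounds from 10 μM to 316 pM in 0.5-log steps. Anti-proliferative effect measured by CellTiter-Glo; IC50 reported in binned categories.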
On the technique in general: Cellular ATP, detected with luciferase, serves as a proxy for viable cell number.

Another assay has as its target T1, CDK7 (Homo sapiens, UniProt P50613).
T1 construct: purchased Life Technologies (Adapta kinase assay service)
The assay can be described thus: CDK7 kinase activity, Adapta kinase assay (Life Technologies). To be noted: Adapta kinase assay at Life Technologies; 10 μM down to 0.514 nM, 3-fold serial dilutions; read-out: CDK7 Inhibition (IC50). In kind it is biochemical. The method, boiled down: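 Adapta kinase activity assay run as a commercial service; substrates not specified here. Compounds tested in 3-fold serial dilutions from 10 μM down to 0.514 nM.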

SMILES strings stand for the structures.

Sequence of CDK7/Cyclin H/MAT1 trimeric complex (P50613 whole entry): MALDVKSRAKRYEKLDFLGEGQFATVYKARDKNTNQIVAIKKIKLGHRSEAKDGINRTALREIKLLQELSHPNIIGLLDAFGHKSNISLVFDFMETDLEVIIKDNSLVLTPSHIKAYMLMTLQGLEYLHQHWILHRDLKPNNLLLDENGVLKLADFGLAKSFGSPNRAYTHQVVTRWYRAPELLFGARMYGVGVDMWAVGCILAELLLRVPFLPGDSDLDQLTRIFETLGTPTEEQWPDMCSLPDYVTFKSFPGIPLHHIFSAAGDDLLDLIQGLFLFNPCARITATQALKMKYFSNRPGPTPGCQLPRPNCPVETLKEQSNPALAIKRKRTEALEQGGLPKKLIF
Sequence of CDK7/Cyclin H/MAT1 trimeric complex (P51946 whole entry partner): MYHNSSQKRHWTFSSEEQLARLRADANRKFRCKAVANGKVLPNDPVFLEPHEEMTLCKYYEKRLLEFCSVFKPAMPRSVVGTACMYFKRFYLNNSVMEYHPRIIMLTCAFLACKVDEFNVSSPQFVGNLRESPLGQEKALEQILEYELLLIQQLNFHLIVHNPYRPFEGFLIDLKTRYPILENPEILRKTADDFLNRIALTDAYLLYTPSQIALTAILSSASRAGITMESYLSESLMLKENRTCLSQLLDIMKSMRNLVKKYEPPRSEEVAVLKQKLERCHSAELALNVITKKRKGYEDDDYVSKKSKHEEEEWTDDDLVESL
Sequence of CDK7/Cyclin H/MAT1 trimeric complex (P51948 whole entry partner): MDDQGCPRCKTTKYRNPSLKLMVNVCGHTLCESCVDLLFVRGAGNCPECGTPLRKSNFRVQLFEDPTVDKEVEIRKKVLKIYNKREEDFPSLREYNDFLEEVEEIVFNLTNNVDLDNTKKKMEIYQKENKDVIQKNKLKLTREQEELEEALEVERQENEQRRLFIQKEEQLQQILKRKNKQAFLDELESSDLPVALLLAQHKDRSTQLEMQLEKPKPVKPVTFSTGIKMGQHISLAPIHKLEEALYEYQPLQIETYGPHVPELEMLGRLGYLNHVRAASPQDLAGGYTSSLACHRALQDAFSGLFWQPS
T1 sequence (P50613 whole entry): as the sequence (P50613 whole entry) above
T1 sequence (P51946 whole entry partner): as the sequence (P51946 whole entry partner) above
T1 sequence (P51948 whole entry partner): as the sequence (P51948 whole entry partner) above

For orientation: IC50 means the point on the concentration scale where inhibition reaches its midpoint. Regarding `CC1CN(C2CCCC(Nc3ncc(Cl)c(-c4c[nH]c5ccccc45)n3)C2)CCN1C(=O)C=CCN(C)C` (centres unmarked) [Compound 230], the IC50 in assay [1] was under 100 nM; in the assay with A673 cells, under 500 nM; in the assay with Jurkat cells, 500 to 5000 nM; on CDK7 it was under 100 nM.
Take `C=CC(=O)N1CCC[C@@H](C(=O)N[C@H]2CCC[C@@H](Nc3ncc(Cl)c(-c4c[nH]c5ccccc45)n3)C2)C1` [Compound 174, (R)-1-acryloyl-N-((1S,3R)-3-(5-chloro-4-(1H-indol-3-yl)pyrimidin-2-ylamino)cyclohexyl)piperidine-3-carboxamide]: the IC50 in assay [1] is under 100 nM; in the assay with A673 cells (Homo sapiens) it was under 500 nM; in the assay on Jurkat cells (Homo sapiens) it was under 500 nM; at CDK7 it was under 100 nM.
For `C=CC(=O)N1CCC(NC[C@@H]2CCC[C@H](Nc3ncc(Cl)c(-c4c[nH]c5ccccc45)n3)C2)CC1` [Compound 212, 1-[4-[[(1R,3S)-3-[[5-chloro-4-(1H-indol-3-yl)pyrimidin-2-yl]amino]cyclohexyl]methylamino]-1-piperidyl]prop-2-en-1-One], the IC50 in assay [1] is under 100 nM; in the assay on A673 cells (Homo sapiens), under 500 nM; in the assay on Jurkat cells (Homo sapiens), over 5000 nM; at CDK7, under 100 nM.
In the case of `C=CC(=O)N1CCC[C@H]1C(=O)N[C@H]1CCC[C@@H](Nc2ncc(Cl)c(-c3c[nH]c4ccccc34)n2)C1` [Compound 115, (S)-1-acryloyl-N-((1S,3R)-3-(5-chloro-4-(1H-indol-3-yl)pyrimidin-2-ylamino)cyclohexyl)pyrrolidine-2-carboxamide], the IC50 was under 100 nM in assay [1], under 500 nM in the assay with A673 cells (Homo sapiens), under 500 nM in the assay with Jurkat cells (Homo sapiens) and under 100 nM on CDK7.
As to `CN(C)C/C=C/C(=O)N1CCC(C(=O)N2CC[C@@H](Nc3ncc(Cl)c(-c4c[nH]c5ccccc45)n3)C2)CC1` [Compound 213, (E)-1-[4-[(3R)-3-[[5-chloro-4-(1H-indol-3-yl)pyrimidin-2-yl]amino]pyrrolidine-1-carbonyl]-1-piperidyl]-4-(dimethylamino)but-2-en-1-One], the IC50 was under 100 nM in assay [1], under 500 nM in the assay on A673 cells (Homo sapiens), over 5000 nM in the assay with Jurkat cells (Homo sapiens) and under 100 nM at CDK7.
Consider `CN(C)C/C=C/C(=O)N1CCC(O)(CN(C)[C@H]2CCC[C@@H](Nc3ncc(Cl)c(-c4c[nH]c5ccccc45)n3)C2)CC1` [Compound 228], for which the IC50 in assay [1] was under 100 nM; with A673 cells, under 500 nM; in the assay on Jurkat cells, 500 to 5000 nM; on CDK7 it was under 100 nM.
For the compound `CN(C)C/C=C/C(=O)Nc1cnc(C(=O)N[C@H]2CCC[C@@H](Nc3ncc(Cl)c(-c4c[nH]c5ccccc45)n3)C2)nc1` [Compound 113, N-((1S,3R)-3-(5-chloro-4-(1H-indol-3-yl)pyrimidin-2-ylamino)cyclohexyl)-5-((E)-4-(dimethylamino)but-2-enamido)pyrimidine-2-carboxamide], the concentration for half-maximal inhibition (IC50) in assay [1] is under 100 nM; in the assay on A673 cells (Homo sapiens), under 500 nM; in the assay on Jurkat cells (Homo sapiens), under 500 nM; on CDK7, under 100 nM.
With `C=CC(=O)N1CCC(NC[C@H]2CCC[C@@H](Nc3ncc(Cl)c(-c4c[nH]c5ccccc45)n3)C2)CC1` [Compound 127, 1-[4-[[(1S,3R)-3-[[5-chloro-4-(1H-indol-3-yl)pyrimidin-2-yl]amino]cyclohexyl]methylamino]-1-piperidyl]prop-2-en-1-One], the IC50 in assay [1] is under 100 nM; in the assay on A673 cells (Homo sapiens) it was under 500 nM; in the assay on Jurkat cells (Homo sapiens), over 5000 nM; at CDK7, under 100 nM.

For the origin of these results see US10106526B2, “Inhibitors of cyclin-dependent kinase 7 (CDK7)” (SYROS PHARMACEUTICALS, INC., priority 2014, dated 2018).
